Laboratory results as given in PubChem BioAssay (NCI).
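At the GI50, growth is halved. TGI: total growth inhibition.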

What was measured:
Experiment in all cases: DTP human tumour cell line panel, 384-well format
[1] = test system: 786-0 renal
[2] = test system: A498 renal
[3] = test system: A549 NSCLC
[4] = test system: ACHN renal
[5] = test system: BT-549 breast
[6] = test system: CAKI-1 renal
[7] = test system: CCRF-CEM leukemia
[8] = test system: COLO 205 colon
[9] = test system: DU-145 prostate
[10] = test system: EKVX NSCLC
[11] = test system: HCC-2998 colon
[12] = test system: HCT-116 colon
[13] = test system: HCT-15 colon
[14] = test system: HL-60(TB) leukemia
[15] = test system: HOP-62 NSCLC
[16] = test system: HOP-92 NSCLC
[17] = test system: HT29 colon
[18] = test system: IGROV1 ovarian
[19] = test system: K-562 leukemia
[20] = test system: KM12 colon
[21] = test system: LOX IMVI melanoma
[22] = test system: M14 melanoma
[23] = test system: MALME-3M melanoma
[24] = test system: MCF7 breast
[25] = test system: MDA-MB-231 breast
[26] = test system: MDA-MB-435 melanoma
[27] = test system: MDA-MB-468 breast
[28] = test system: MOLT-4 leukemia
[29] = test system: NCI-H226 lung
[30] = test system: NCI-H23 lung
[31] = test system: NCI-H322M lung
[32] = test system: NCI-H460 NSCLC
[33] = test system: NCI-H522 lung
[34] = test system: NCI/ADR-RES ovarian
[35] = test system: OVCAR-3 ovarian
[36] = test system: OVCAR-4 ovarian
[37] = test system: OVCAR-5 ovarian
[38] = test system: OVCAR-8 ovarian
[39] = test system: PC-3 prostate
[40] = test system: RPMI-8226 leukemia
[41] = test system: RXF 393 renal
[42] = test system: SF-268 CNS
[43] = test system: SF-295 CNS
[44] = test system: SF-539 CNS
[45] = test system: SK-MEL-2 melanoma
[46] = test system: SK-MEL-28 melanoma
[47] = test system: SK-MEL-5 melanoma
[48] = test system: SK-OV-3 ovarian
[49] = test system: SN12C renal
[50] = test system: SNB-19 CNS
[51] = test system: SNB-75 CNS
[52] = test system: SR leukemia
[53] = test system: SW-620 colon
[54] = test system: T-47D breast
[55] = test system: TK-10 renal
[56] = test system: U251 glioblastoma
[57] = test system: UACC-257 melanoma
[58] = test system: UACC-62 melanoma
[59] = test system: UO-31 renal
[60] = test system: HS 578T breast

## Cc1cc(C)c(S(=O)(=O)N(CCc2cccc(Br)c2)Cc2ccc(-c3cccc(S(C)(=O)=O)c3)cc2)c(C)c1
[1]
  GI50: > 100 µM
  TGI: > 100 µM
[2]
  GI50: > 100 µM
  TGI: > 100 µM
[3]
  GI50: > 100 µM
  TGI: > 100 µM
[4]
  GI50: > 100 µM
  TGI: > 100 µM
[5]
  GI50: > 100 µM
  TGI: > 100 µM
[6]
  GI50: > 81.9 µM
  TGI: > 100 µM
[7]
  GI50: > 100 µM
  TGI: > 100 µM
[8]
  GI50: > 100 µM
  TGI: > 100 µM
[9]
  GI50: > 100 µM
  TGI: > 100 µM
[10]
  GI50: > 100 µM
  TGI: > 100 µM
[11]
  GI50: > 100 µM
  TGI: > 100 µM
[12]
  GI50: > 100 µM
  TGI: > 100 µM
[13]
  GI50: > 100 µM
  TGI: > 100 µM
[14]
  TGI: > 100 µM
[15]
  GI50: > 100 µM
  TGI: > 100 µM
[16]
  GI50: > 100 µM
  TGI: > 100 µM
[17]
  GI50: > 100 µM
  TGI: > 100 µM
[18]
  GI50: > 100 µM
  TGI: > 100 µM
[19]
  GI50: > 100 µM
  TGI: > 100 µM
[20]
  GI50: > 100 µM
  TGI: > 100 µM
[21]
  GI50: > 100 µM
  TGI: > 100 µM
[22]
  GI50: > 100 µM
  TGI: > 100 µM
[23]
  GI50: > 100 µM
  TGI: > 100 µM
[24]
  GI50: > 100 µM
  TGI: > 100 µM
[25]
  GI50: > 100 µM
  TGI: > 100 µM
[26]
  GI50: > 100 µM
  TGI: > 100 µM
[27]
  GI50: > 100 µM
  TGI: > 100 µM
[28]
  GI50: > 100 µM
  TGI: > 100 µM
[29]
  GI50: > 100 µM
  TGI: > 100 µM
[30]
  GI50: > 100 µM
  TGI: > 100 µM
[31]
  GI50: > 100 µM
  TGI: > 100 µM
[32]
  GI50: > 100 µM
  TGI: > 100 µM
[33]
  GI50: > 100 µM
  TGI: > 100 µM
[34]
  GI50: > 100 µM
  TGI: > 100 µM
[35]
  GI50: > 100 µM
  TGI: > 100 µM
[36]
  GI50: > 100 µM
  TGI: > 100 µM
[37]
  GI50: > 100 µM
  TGI: > 100 µM
[38]
  GI50: > 100 µM
  TGI: > 100 µM
[39]
  GI50: > 100 µM
  TGI: > 100 µM
[40]
  GI50: > 100 µM
  TGI: > 100 µM
[41]
  GI50: > 100 µM
  TGI: > 100 µM
[42]
  GI50: > 100 µM
  TGI: > 100 µM
[43]
  GI50: 0.0672 µM
[44]
  GI50: > 100 µM
  TGI: > 100 µM
[45]
  GI50: > 100 µM
  TGI: > 100 µM
[46]
  GI50: > 100 µM
  TGI: > 100 µM
[47]
  GI50: > 100 µM
  TGI: > 100 µM
[48]
  GI50: > 100 µM
  TGI: > 100 µM
[49]
  GI50: > 100 µM
  TGI: > 100 µM
[50]
  GI50: > 100 µM
  TGI: > 100 µM
[51]
  GI50: > 100 µM
  TGI: > 100 µM
[52]
  TGI: > 100 µM
[53]
  GI50: > 100 µM
  TGI: > 100 µM
[54]
  GI50: > 100 µM
  TGI: > 100 µM
[55]
  GI50: > 100 µM
  TGI: > 100 µM
[56]
  GI50: > 100 µM
  TGI: > 100 µM
[57]
  GI50: > 100 µM
  TGI: > 100 µM
[58]
  GI50: > 100 µM
  TGI: > 100 µM
[59]
  GI50: > 100 µM
  TGI: > 100 µM

## Cn1cnc2c(F)c(Nc3ccc(Br)cc3F)c(C(=O)NOCCO)cc21
[1]
  GI50: > 32.1 µM
  TGI: > 100 µM
[2]
  GI50: 16.9 µM
  TGI: > 100 µM
[3]
  GI50: 0.553 µM
  TGI: > 100 µM
[4]
  GI50: > 33.9 µM
  TGI: > 100 µM
[5]
  GI50: 15.7 µM
  TGI: > 100 µM
[6]
  TGI: > 100 µM
[7]
  GI50: > 100 µM
  TGI: > 100 µM
[8]
  GI50: < 0.0149 µM
  TGI: 0.322 µM
[9]
  GI50: 31.8 µM
  TGI: > 100 µM
[10]
  GI50: 29.4 µM
  TGI: > 100 µM
[11]
  GI50: < 0.01 µM
  TGI: 0.733 µM
[12]
  GI50: 0.498 µM
  TGI: 15.2 µM
[13]
  GI50: > 44.7 µM
  TGI: > 100 µM
[14]
  GI50: 0.0399 µM
  TGI: > 100 µM
[15]
  TGI: > 100 µM
[16]
  GI50: 1.38 µM
  TGI: 9.01 µM
[60]
  TGI: > 88.2 µM
[17]
  GI50: 0.0524 µM
  TGI: > 100 µM
[18]
  GI50: 1.55 µM
  TGI: > 100 µM
[20]
  GI50: 0.419 µM
  TGI: > 100 µM
[21]
  GI50: 1.25 µM
  TGI: 18.7 µM
[22]
  GI50: < 0.0121 µM
  TGI: 0.161 µM
[23]
  GI50: < 0.01 µM
  TGI: 0.0159 µM
[24]
  GI50: > 100 µM
  TGI: > 100 µM
[25]
  GI50: 0.422 µM
  TGI: 8.26 µM
[26]
  GI50: 0.1 µM
  TGI: > 100 µM
[27]
  GI50: > 100 µM
  TGI: > 100 µM
[28]
  GI50: > 100 µM
  TGI: > 100 µM
[29]
  GI50: 0.405 µM
  TGI: > 31.9 µM
[30]
  GI50: 0.325 µM
  TGI: 17.8 µM
[31]
  GI50: 1.96 µM
  TGI: > 57.7 µM
[32]
  GI50: > 100 µM
  TGI: > 100 µM
[33]
  GI50: > 45.4 µM
  TGI: > 100 µM
[34]
  GI50: 93.9 µM
  TGI: > 100 µM
[35]
  GI50: > 100 µM
  TGI: > 100 µM
[36]
  GI50: 17.9 µM
  TGI: > 100 µM
[37]
  GI50: 0.922 µM
  TGI: > 100 µM
[38]
  GI50: > 67.4 µM
  TGI: > 100 µM
[39]
  GI50: > 100 µM
  TGI: > 100 µM
[40]
  GI50: > 56 µM
  TGI: > 100 µM
[41]
  TGI: > 21 µM
[42]
  GI50: > 100 µM
  TGI: > 100 µM
[43]
  GI50: > 100 µM
  TGI: > 100 µM
[44]
  GI50: 21.9 µM
  TGI: > 90.9 µM
[46]
  GI50: < 0.0143 µM
  TGI: 0.162 µM
[47]
  GI50: 0.0317 µM
[48]
  GI50: > 100 µM
  TGI: > 100 µM
[49]
  GI50: 12.5 µM
  TGI: > 100 µM
[50]
  GI50: > 100 µM
  TGI: > 100 µM
[51]
  TGI: > 75.8 µM
[52]
  GI50: 24.7 µM
  TGI: > 100 µM
[53]
  GI50: 0.0211 µM
  TGI: > 100 µM
[54]
  GI50: > 100 µM
  TGI: > 100 µM
[55]
  GI50: 38.3 µM
  TGI: > 100 µM
[56]
  GI50: 12.4 µM
  TGI: > 100 µM
[57]
  GI50: 0.0333 µM
  TGI: 0.241 µM
[58]
  GI50: 0.0203 µM
  TGI: 1.2 µM
[59]
  GI50: 4.96 µM
  TGI: > 45.9 µM
